Reference: patent publication US9636345B2, “Benzimidazole derivatives useful TRPM8 channel modulators” (Janssen Pharmaceutica NV, priority 2009, dated 2017)
pIC50: −log10 of the molar value. Where a name gives a salt, the structure may show the parent alone. Read-outs that look alike come from different tables or passages of the source.

Biological target: T1, canine TRPM8 (Canis lupus familiaris, UniProt Q1A7N1)
T1 construct: expressed in transfected cells
Assay: In vitro canine TRPM8 functional assay (icilin-induced intracellular Ca2+ increase, FLIPR/FDSS)
Type: cell-based
Details: for inhibition at 0.2 µM / % Inh @ 0.2 μM: 0.2 μM compound, HEK293 canine TRPM8; for inhibition at 1 µM / % Inh @ 1 μM: 1 μM compound, samples diluted from 10 mM stock with 100% DMSO; for pIC50: read-out: IC50
Protocol: The functional activity of representative compounds of the formula (I) of the present invention was quantified by measuring changes in intracellular calcium concentration using a Ca^2+-sensitive fluorescent dye. The changes in fluorescent signal were monitored by a fluorescence plate reader, either a FLIPR™ (Molecular Devices) or FDSS (Hamamatsu).
HEK293 cells stably expressing canine TRPM8 were routinely grown as monolayers in Dulbecco's minimum essential medium supplemented with 10% FBS, 2 mM L-glutamine, 100 units/mL penicillin, 100 ug/mL streptomycin and 400 μg/mL G418. Cells were maintained in 5% CO2 at 37° C. At 24 hr prior to assay, cells were seeded in black wall, clear-base poly-D-lysine coated 384-well plates (BD Biosciences, N.J., USA) at a density of 5,000 cells per well in culture medium and grown overnight in 5% CO2 at 37° C. On assay day, growth media was removed, and cells were loaded with Calcium 3 Dye (Molecular Devices) for 35 min at 37° C., under 5% CO2 and then incubated for 25 min at room temperature and atmosphere. Subsequently, cells were tested for agonist-induced increases in intracellular Ca^2+ levels using FLIPR™ or FDSS. Cells were treated with compounds of the formula (I) at varying concentrations and intracellular Ca^2+ was measured for 5 min prior to the addition of icilin to all wells to achieve a final concentration that produces approximately an 80% maximal response.
Basal FI was subtracted prior to normalizing data to percent of maximal response. Curves were generated using the average of quadruplicate wells for each data point using nonlinear regression of either sigmoidal dose response or sigmoidal dose response (variable slope). Finally, the EC50 and IC50 values were calculated with the best-fit curve determined by GraphPad Prism
Test samples were prepared by diluting a 10 mM stock solution of test compound with 100% DMSO prior to addition to assay buffer.

[1] = re-test, samples diluted from 10 mM stock with 100% DMSO before addition to assay buffer, Table 7
[2] = HEK293 cells stably expressing canine TRPM8, icilin at ~80% maximal response, Table 6

T1 sequence (Q1A7N1 1-1104): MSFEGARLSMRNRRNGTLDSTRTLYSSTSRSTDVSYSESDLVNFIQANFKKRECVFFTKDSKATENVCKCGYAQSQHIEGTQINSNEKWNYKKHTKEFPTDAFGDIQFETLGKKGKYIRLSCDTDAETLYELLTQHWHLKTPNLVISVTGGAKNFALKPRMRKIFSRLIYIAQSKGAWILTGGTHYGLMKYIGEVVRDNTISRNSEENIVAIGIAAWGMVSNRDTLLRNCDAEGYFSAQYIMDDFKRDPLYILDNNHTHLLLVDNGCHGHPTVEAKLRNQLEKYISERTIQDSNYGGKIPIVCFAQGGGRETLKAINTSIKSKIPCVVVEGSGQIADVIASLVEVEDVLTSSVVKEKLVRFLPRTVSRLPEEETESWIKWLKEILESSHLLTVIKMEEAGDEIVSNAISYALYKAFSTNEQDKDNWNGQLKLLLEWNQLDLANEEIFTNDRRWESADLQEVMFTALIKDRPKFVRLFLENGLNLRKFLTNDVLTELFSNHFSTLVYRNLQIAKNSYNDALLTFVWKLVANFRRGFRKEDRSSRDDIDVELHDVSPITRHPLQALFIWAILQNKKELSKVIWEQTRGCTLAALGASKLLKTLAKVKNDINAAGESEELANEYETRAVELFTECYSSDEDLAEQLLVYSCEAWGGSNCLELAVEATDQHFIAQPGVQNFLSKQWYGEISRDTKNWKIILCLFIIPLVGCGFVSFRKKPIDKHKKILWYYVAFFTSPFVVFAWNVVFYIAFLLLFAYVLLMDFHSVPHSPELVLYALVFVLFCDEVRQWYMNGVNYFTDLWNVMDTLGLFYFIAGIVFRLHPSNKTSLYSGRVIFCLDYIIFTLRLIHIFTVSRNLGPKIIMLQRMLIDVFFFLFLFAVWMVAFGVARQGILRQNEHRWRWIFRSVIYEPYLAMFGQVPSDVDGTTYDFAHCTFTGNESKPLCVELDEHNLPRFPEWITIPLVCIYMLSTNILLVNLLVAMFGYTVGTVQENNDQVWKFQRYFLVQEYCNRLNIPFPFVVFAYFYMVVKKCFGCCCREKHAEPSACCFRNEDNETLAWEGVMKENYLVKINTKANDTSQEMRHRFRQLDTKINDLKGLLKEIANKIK

inhibition at 0.2 µM (Table 6) [%]	% Inh @ 0.2 μM (Table 6) [%]	Structure (SMILES)	also measured
–	20	Cn1c(=NS(=O)(=O)c2ccccc2)n(Cc2ccc(F)cc2)c2ccccc21 [Compound 8]	–
–	14	O=S(=O)(N=c1n(Cc2ccc(C(F)(F)F)c(F)c2)c2cccc3c2n1CCC3)c1ccccc1 [Compound 51]	–
–	34	Cn1c(=NS(=O)(=O)c2ccccc2)n(Cc2ccc(OC(F)(F)F)cc2)c2ccccc21 [Compound 2]	–
71	–	Cn1c(=NS(=O)(=O)c2ccccc2)n(Cc2ccc(C(F)(F)F)c(F)c2)c2cc(C(F)(F)F)ccc21 [Compound 31]	pIC50 [2]: 7.41
–	19	Cn1c(=NS(=O)(=O)c2ccccc2)n(Cc2ccc(C(F)(F)F)cc2)c2cc(C(F)(F)F)ccc21 [Compound 29]	–
–	6	Cn1c(=NS(=O)(=O)c2ccc(Cl)cc2)n(Cc2ccc(C(F)(F)F)c(F)c2)c2ccccc21 [Compound 22]	% Inh @ 1 μM (re-test, Table 7): 77%; pIC50 [1]: 6.29
95	–	CC(C)n1c(=NS(=O)(=O)c2ccccc2)n(Cc2ccc(OC(F)(F)F)cc2)c2cc(C(F)(F)F)ccc21 [Compound 34]	pIC50 [2]: 7.62
–	8	Cn1c(=NS(=O)(=O)c2ccccc2)n(Cc2ccccc2)c2ccccc21 [Compound 3]	% Inh @ 1 μM (re-test, Table 7): 40%
–	71	CC(C)Cn1c(=NS(=O)(=O)c2ccccc2)n(Cc2ccc(C(F)(F)F)cc2)c2ccccc21 [Compound 27]	pIC50 [2]: 7.37
89	–	O=S(=O)(/N=c1\n(Cc2ccc(C(F)(F)F)c(F)c2)c2ccccc2n1CC(F)(F)F)c1ccccc1 [Compound 43, N-[1-(3-Fluoro-4-trifluoromethyl-benzyl)-3-(2,2,2-trifluoro-ethyl)-1,3-dihydro-benzimidazol-2-ylidene]-benzenesulfonamide]	pIC50 [2]: 7.68
–	36	CCn1c(=NS(=O)(=O)c2ccccc2)n(Cc2ccc(OC(F)(F)F)cc2)c2cc(F)ccc21 [Compound 36]	–
–	37	O=S(=O)(N=c1n(Cc2ccc(OC(F)(F)F)cc2)c2ccccc2n1CC(F)(F)F)c1ccccc1 [Compound 44]	–
34	–	O=S(=O)(/N=c1\n(Cc2ccc(C(F)(F)F)cc2)c2cccc3c2n1CCO3)c1ccccc1 [Compound 63, N-[1-(4-Trifluoromethyl-benzyl)-3,4-dihydro-1H-5-oxa-1,2a-diaza-acenaphthylen-2-ylidene]-benzenesulfonamide TFA salt]	–
–	22	Cn1c(=NS(=O)(=O)c2ccccc2)n(Cc2ccc(C(F)(F)F)c(F)c2)c2ccccc21 [Compound 10]	–
95	–	CC(C)n1c(=NS(=O)(=O)c2ccccc2)n(Cc2ccc(C(F)(F)F)c(F)c2)c2cc(Cl)ccc21 [Compound 42]	pIC50 [2]: 7.59
94	–	O=S(=O)(/N=c1\n(Cc2ccc(C(F)(F)F)c(F)c2)c2ccccc2n1CC1CC1)c1ccccc1 [Compound 50, N-[1-Cyclopropylmethyl-3-(3-fluoro-4-trifluoromethyl-benzyl)-1,3-dihydro-benzimidazol-2-ylidene]-benzenesulfonamide]	pIC50 [2]: 7.07

More lines, now with the values behind:

Structure (SMILES)	inhibition at 0.2 µM (Table 6) [%]	% Inh @ 0.2 μM (Table 6) [%]	also measured
Cn1c(=NS(=O)(=O)c2ccc(Cl)cc2)n(Cc2ccc(OC(F)(F)F)cc2)c2ccccc21 [Compound 20]	2	–	inhibition at 1 µM (re-test, Table 7): 74%; pIC50 [1]: 6.37
Cn1c(=NS(=O)(=O)c2ccccc2)n(Cc2ccc(F)c(C(F)(F)F)c2)c2ccccc21 [Compound 1]	–	40	–
CCn1c(=NS(=O)(=O)c2ccccc2)n(Cc2ccc(OC(F)(F)F)cc2)c2ccccc21 [Compound 14]	–	75	pIC50 [2]: 7.00
Cn1c(=NS(=O)(=O)c2ccccc2)n(Cc2ccc(C(F)(F)F)cc2)c2ccc(C(F)(F)F)cc21 [Compound 59]	–	20	–
Cn1c(=NS(=O)(=O)c2ccc(C(F)(F)F)cc2)n(Cc2ccc(C(F)(F)F)c(F)c2)c2ccccc21 [Compound 23]	3	–	inhibition at 1 µM (re-test, Table 7): 59%; pIC50 [1]: 6.12
O=S(=O)(N=c1n(Cc2ccc(C(F)(F)F)cc2)c2ccccc2n1CC1CC1)c1ccccc1 [Compound 49]	71	–	pIC50 [2]: 6.96
CCn1/c(=N/S(=O)(=O)c2ccccc2)n(Cc2ccc(C(F)(F)F)cc2)c2cc(F)ccc21 [Compound 39, N-[1-Ethyl-5-fluoro-3-(4-trifluoromethyl-benzyl)-1,3-dihydro-benzimidazol-2-ylidene]-benzenesulfonamide]	26	–	–
Cc1cccc2c1n(Cc1ccc(C(F)(F)F)c(F)c1)c(=NS(=O)(=O)c1ccccc1)n2C [Compound 62]	–	19	–
CC(C)Cn1c(=NS(=O)(=O)c2ccccc2)n(Cc2ccc(C(F)(F)F)c(F)c2)c2ccccc21 [Compound 26]	100	–	pIC50 [2]: 7.85
Cn1c(=NS(=O)(=O)c2ccccc2)n(Cc2ccc(C(F)(F)F)cc2)c2cc(F)ccc21 [Compound 38]	–	1	% Inh @ 1 μM (re-test, Table 7): 24%
Cn1c(=NS(=O)(=O)c2ccc(F)cc2)n(Cc2ccc(OC(F)(F)F)cc2)c2ccccc21 [Compound 17]	6	–	inhibition at 1 µM (re-test, Table 7): 60%; pIC50 [1]: 6.22
CCn1c(=NS(=O)(=O)c2ccccc2)n(Cc2ccc(C(F)(F)F)c(F)c2)c2ccccc21 [Compound 25]	–	62	–
CCn1c(=NS(=O)(=O)c2ccccc2)n(Cc2ccc(C(F)(F)F)c(F)c2)c2cc(F)ccc21 [Compound 33]	–	70	–
O=S(=O)(N=c1n(Cc2ccc(OC(F)(F)F)cc2)c2cccc3c2n1CCC3)c1ccccc1 [Compound 52]	–	18	–
Cc1cc2c(cc1C)n(Cc1ccc(C(F)(F)F)c(F)c1)c(=NS(=O)(=O)c1ccccc1)n2C [Compound 61]	–	14	–
Cn1c(=NS(=O)(=O)c2ccccc2)n(Cc2ccc(OC(F)F)cc2)c2ccccc21 [Compound 13]	9	–	inhibition at 1 µM (re-test, Table 7): 55%; pIC50 [1]: 6.12

Structure (SMILES)	inhibition at 0.2 µM (Table 6) [%]	% Inh @ 0.2 μM (Table 6) [%]	also measured
Cn1c(=NS(=O)(=O)c2ccccc2)n(Cc2ccc(C(F)(F)F)c(F)c2)c2cc(F)ccc21 [Compound 41]	–	6	% Inh @ 1 μM (re-test, Table 7): 79%
O=S(=O)(N=c1n(Cc2ccc(C(F)(F)F)cc2)c2ccccc2n1CC(F)(F)F)c1ccccc1 [Compound 40]	9	–	inhibition at 1 µM (re-test, Table 7): 57%; pIC50 [1]: 6.37
Cn1c(=NS(=O)(=O)c2ccccc2)n(Cc2cc(C(F)(F)F)ccc2F)c2ccccc21 [Compound 9]	–	39	–
Cn1c(=NS(=O)(=O)c2ccccc2)n(Cc2ccc(C(F)(F)F)cc2)c2ccccc21 [Compound 6]	–	2	% Inh @ 1 μM (re-test, Table 7): 65%
Cc1ccc2c(c1)n(C)c(=NS(=O)(=O)c1ccccc1)n2Cc1ccc(C(F)(F)F)cc1 [Compound 56]	–	1	% Inh @ 1 μM (re-test, Table 7): 40%
Cc1ccc2c(c1)n(C)/c(=N/S(=O)(=O)c1ccccc1)n2Cc1ccc(C(F)(F)F)c(F)c1 [Compound 55, N-[1-(3-Fluoro-4-trifluoromethyl-benzyl)-3,5-dimethyl-1,3-dihydro-benzimidazol-2-ylidene]-benzene sulfonamide]	18	–	–
Cn1c(=NS(=O)(=O)c2ccccc2)n(Cc2ccc(C(F)(F)F)c(F)c2)c2ccc(C(F)(F)F)cc21 [Compound 57]	–	45	–
Cn1c(=NS(=O)(=O)c2ccccc2)n(Cc2ccc(SC(F)(F)F)cc2)c2ccccc21 [Compound 12]	–	11	–
CCn1c(=NS(=O)(=O)c2ccccc2)n(Cc2ccc(C(F)(F)F)cc2)c2ccccc21 [Compound 15]	–	85	pIC50 [2]: 7.16
O=S(=O)(N=c1n(Cc2ccc(C(F)(F)F)cc2)c2cccc3c2n1CCC3)c1ccccc1 [Compound 53]	–	16	–
CC(C)n1c(=NS(=O)(=O)c2ccccc2)n(Cc2ccc(C(F)(F)F)c(F)c2)c2cc(C(F)(F)F)ccc21 [Compound 35]	–	100	pIC50 [2]: 8.00
Cn1c(=NS(=O)(=O)c2ccc(C(F)(F)F)cc2)n(Cc2ccc(OC(F)(F)F)cc2)c2ccccc21 [Compound 18]	1	–	inhibition at 1 µM (re-test, Table 7): 57%; pIC50 [1]: 6.20
Cn1c(=NS(=O)(=O)c2ccccc2)n(Cc2ccc(OC(F)(F)F)cc2)c2cc(C(F)(F)F)ccc21 [Compound 30]	–	17	–
Cn1c(=NS(=O)(=O)c2ccccc2)n(Cc2ccc(F)c(Cl)c2)c2ccccc21 [Compound 11]	–	38	–
Cn1/c(=N/S(=O)(=O)c2ccccc2)n(Cc2cccc(C(F)(F)F)c2)c2ccccc21 [Compound 4, N-[1-Methyl-3-(3-trifluoromethyl-benzyl)-1,3-dihydro-benzimidazol-2-ylidene]-benzenesulfonamide]	42	–	–
Cc1ccc2c(c1)n(C)c(=NS(=O)(=O)c1ccccc1)n2Cc1ccc(OC(F)(F)F)cc1 [Compound 54]	–	6	% Inh @ 1 μM (re-test, Table 7): 55%; pIC50 [1]: 6.19
